pIC50: −log10 of the molar value. Values joined by “and” are separate entries in the source; they are usually repeats but may differ in a detail not shown here. Equal values may be shown once.
Target: T1, CETP (Homo sapiens, UniProt P11597)
T1 construct: from tissue; host or cells: human plasma from normal volunteers
T1 sequence (P11597 18-493): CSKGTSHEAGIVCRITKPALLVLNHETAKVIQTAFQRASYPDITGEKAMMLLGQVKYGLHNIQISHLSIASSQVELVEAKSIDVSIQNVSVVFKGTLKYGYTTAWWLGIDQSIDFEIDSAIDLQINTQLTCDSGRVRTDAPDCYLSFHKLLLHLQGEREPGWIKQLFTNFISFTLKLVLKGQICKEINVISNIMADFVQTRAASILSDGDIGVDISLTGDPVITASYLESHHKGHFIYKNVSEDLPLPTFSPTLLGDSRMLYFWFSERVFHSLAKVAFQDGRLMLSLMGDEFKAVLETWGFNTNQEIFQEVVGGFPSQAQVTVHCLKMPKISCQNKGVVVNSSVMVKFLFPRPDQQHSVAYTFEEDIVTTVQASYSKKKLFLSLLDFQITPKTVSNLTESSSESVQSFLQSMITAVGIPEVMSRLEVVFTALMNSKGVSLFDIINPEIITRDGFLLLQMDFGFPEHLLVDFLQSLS
Assay: CETP in vitro assay (Amersham kit TRKQ7005; modified protocol in human plasma, [3H]CE-HDL transfer)
Format: biochemical
Details: for % Inhibition @ 1 μM / inhibition at 1 µM: 1 μM compound; for pIC50: from plots of % control versus compound concentration; for inhibition at 1 µM: read-out: % Inhibition @ 1 μM
Protocol: The CETP inhibitory activity of the compounds was determined using a commercially available kit from Amersham Biosciences (Catalog #TRKQ7005).
Briefly, 80 μl of human plasma (obtained from normal volunteers), approximately 25 μg/ml (20 μl) of [^3H]CE-HDL (Amersham Biosciences from kit TRKQ7005) and 1 μl of compound dissolved in DMSO was incubated for at least 4 hrs at 37° C. and non-specific transfer was determined by incubating a corresponding plate at 4° C. (blank). After the incubation period, 10 μl of a solution of 1% Dextralip 50/0.5M MgCl2, pH 7.4 was added, vortexed and incubated at room temperature for 10 min. The plate was then centrifuged for 30 min at 10° C. at 300 rpm in a Sorvall RT6000B centrifuge. Fifty microliters of the supernatant was transferred to a Picoplate (Packard) containing 100 μl of Microscint 40 (Perkin Elmer) and mixed for 30 min using a plate mixer. The radioactivity was counted using a TopCount (Perkin Elmer) and the % control was determined in the samples using the following formula: % transfer relative to vehicle controls (% control)=[cpm blank−cpm test]/cpm blank/cpm control]×100. IC50s were calculated from plots of the % control versus compound concentration.

% Inhibition @ 1 μM | pIC50 | inhibition at 1 µM | SMILES
86% | 6.40 |  | CCc1cc(Oc2cccc3c2CCC(c2cccc(OC(F)(F)C(F)F)c2)N3CC(O)C(F)(F)F)ccc1Cl (stereo not shown) [Compound 85, 3-{5-(4-Chloro-3-ethyl-phenoxy)-2-[3-(1,1,2,2-tetrafluro-ethoxy)-phenyl]-3,4-dihydro-2H-quinolin-1-yl}-1,1,1-trifluoro-propan-2-ol]
57% and 77% and 84% | 7.05 and 6.70 and 7.07 |  | C[C@@H](O)CN1c2cccc(-c3cccc(OC(F)(F)F)c3)c2CC[C@@H]1c1cccc(OC(F)(F)F)c1 [Compound 53]
33% |  |  | OC(CN1c2cccc(-c3cccc(OC(F)(F)F)c3)c2CCC1c1cccc(F)c1)C(F)(F)F (stereo not shown) [Compound 23, 1,1,1-Trifluoro-3-[2-(3-fluoro-phenyl)-5-(3-trifluoromethoxy-phenyl)-3,4-dihydro-2H-quinolin-1-yl]-propan-2-ol]
1% |  |  | OC(CN1c2cccc(-c3ccc(C(F)(F)F)cc3)c2CCC1c1cccc(OC(F)(F)C(F)F)c1)C(F)(F)F (stereo not shown) [Compound 4, 1,1,1-Trifluoro-3-[2-[3-(1,1,2,2-tetrafluoro-ethoxy)-phenyl]-5-(4-trifluoromethyl-phenyl)-3,4-dihydro-2H-quinolin-1-yl]-propan-2-ol]
 |  | 20% | O[C@@H](CN1c2cccc(-c3cccc(OC(F)(F)F)c3)c2CC[C@H]1c1cccc(OC(F)(F)C(F)F)c1)C(F)(F)F [Compound 80, (2S, αS)-3,4-Dihydro-2-[3-(1,1,2,2-tetrafluoroethoxy)phenyl]-5-[3-(trifluoromethoxy)phenyl]-α-(trifluoromethyl)-1(2H)-quinolineethanol]
82% and 85% | 6.75 and 6.53 |  | N#Cc1cccc(-c2cccc3c2CCC(c2cccc(OC(F)(F)C(F)F)c2)N3CC(O)C(F)(F)F)c1 (stereo not shown) [Compound 9, 3-[2-[3-(1,1,2,2-Tetrafluoro-ethoxy)-phenyl]-1-(3,3,3-trifluoro-2-hydroxy-propyl)-1,2,3,4-tetrahydro-quinolin-5-yl]-benzonitrile]
 | < 5.52 | 62% | O[C@H](CN1c2cccc(-c3cccc(OC(F)(F)F)c3)c2CC[C@@H]1c1cccc(OC(F)(F)C(F)F)c1)C(F)(F)F [Compound 79, (2R, αR)-3,4-Dihydro-2-[3-(1,1,2,2-tetrafluoroethoxy)phenyl]-5-[3-(trifluoromethoxy)phenyl]-α-(trifluoromethyl)-1(2H)-quinolineethanol]
76% | 6.91 and 7.03 | 84% | O[C@@H](CN1c2cccc(-c3cccc(F)c3)c2CC[C@@H]1c1cccc(OC(F)(F)C(F)F)c1)C(F)(F)F [Compound 82, (2R, αS)-3,4-Dihydro-2-[3-(1,1,2,2-tetrafluoroethoxy)phenyl]-5-[3-(fluoro)phenyl]-α-(trifluoromethyl)-1(2H)-quinolineethanol]
22% |  |  | CC(C)C(O)CN1c2cccc(-c3cccc(OC(F)(F)F)c3)c2CCC1c1cccc(OC(F)(F)F)c1 (stereo not shown) [Compound 46, 1-[2,5-Bis-(3-trifluoromethoxy-phenyl)-3,4-dihydro-2H-quinolin-1-yl]-3-methyl-butan-2-ol]
14% |  |  | OC(CN1c2cccc(-c3cccc(OC(F)(F)F)c3)c2CCC1c1ccc(OC(F)(F)C(F)F)cc1)C(F)(F)F (stereo not shown) [Compound 22, 1,1,1-Trifluoro-3-[2-[4-(1,1,2,2-tetrafluoro-ethoxy)-phenyl]-5-(3-trifluoromethoxy-phenyl)-3,4-dihydro-2H-quinolin-1-yl]-propan-2-ol]
9% |  |  | OC(CN1c2cccc(-c3cccc(OC(F)(F)F)c3)c2CCC1c1ccccc1OC(F)(F)C(F)F)C(F)(F)F (stereo not shown) [Compound 89, 1,1,1-Trifluoro-3-[2-[2-(1,1,2,2-tetrafluoro-ethoxy)-phenyl]-5-(3-trifluoromethoxy-phenyl)-3,4-dihydro-2H-quinolin-1-yl]-propan-2-ol]
98% and 87% | 7.02 |  | OC(CN1c2cccc(-c3cccc(C(F)(F)F)c3)c2CCC1c1cccc(OC(F)(F)C(F)F)c1)C(F)(F)F (stereo not shown) [Compound 13]
48% |  | 38% | C[C@@H](O)CN1c2cccc(-c3cccc(F)c3)c2CC[C@@H]1c1cccc(OC(F)(F)C(F)F)c1 [Compound 77, (αR,2R)-5-(3-Fluorophenyl)-3,4-dihydro-α-methyl-2-[3-(1,1,2,2-tetrafluoroethoxy)phenyl]-1(2H)-quinolineethanol]
4% |  |  | OC(CN1c2cccc(-c3cccc(OC(F)(F)F)c3)c2CCC1c1cccc(F)c1)C(F)(F)F (stereo not shown) [Compound 24, 1,1,1-Trifluoro-3-[2-(3-fluoro-phenyl)-5-(3-trifluoromethoxy-phenyl)-3,4-dihydro-2H-quinolin-1-yl]-propan-2-ol]
 |  | 0% | COC[C@@H](O)CN1c2cccc(-c3cccc(OC(F)(F)F)c3)c2CC[C@H]1c1cccc(OC(F)(F)F)c1 [Compound 52]
86% | 6.40 |  | OC(CN1c2cccc(Oc3cccc(Cl)c3Cl)c2CCC1c1cccc(OC(F)(F)C(F)F)c1)C(F)(F)F (stereo not shown) [Compound 87, 3-{5-(2,3-Dichloro-phenoxy)-2-[3-(1,1,2,2-tetrafluoro-ethoxy)-phenyl]-3,4-dihydro-2H-quinolin-1-yl}-1,1,1-trifluoro-propan-2-ol]
0% |  |  | OC(CN1c2cccc(-c3cccc(OC(F)(F)F)c3)c2CCC1c1ccccc1OC(F)(F)C(F)F)C(F)(F)F (stereo not shown) [Compound 90, 1,1,1-Trifluoro-3-[2-[2-(1,1,2,2-tetrafluoro-ethoxy)-phenyl]-5-(3-trifluoromethoxy-phenyl)-3,4-dihydro-2H-quinolin-1-yl]-propan-2-ol]
 |  | 39% | O=Cc1cccc(-c2cccc3c2CCC(c2cccc(OC(F)(F)C(F)F)c2)N3CC(O)C(F)(F)F)c1 (stereo not shown) [Compound 63, 3-[2-[3-(1,1,2,2-Tetrafluoro-ethoxy)-phenyl]-1-(3,3,3-trifluoro-2-hydroxy-propyl)-1,2,3,4-tetrahydro-quinolin-5-yl]-benzaldehyde]
 |  | 3% | C[C@@H](O)CN1c2cccc(-c3cccc(Cl)c3)c2CC[C@H]1c1cccc(OC(F)(F)F)c1 [Compound 41]
13% |  |  | OC(CN1c2cccc(-c3cccc(OC(F)(F)F)c3)c2CCC1c1cccc(Cl)c1)C(F)(F)F (stereo not shown) [Compound 30, 3-[2-(3-Chloro-phenyl)-5-(3-trifluoromethoxy-phenyl)-3,4-dihydro-2H-quinolin-1-yl]-1,1,1-trifluoro-propan-2-ol]
4% |  |  | COc1cccc(C2CCc3c(-c4cccc(OC(F)(F)F)c4)cccc3N2CC(O)C(F)(F)F)c1 (stereo not shown) [Compound 26, 1,1,1-Trifluoro-3-[2-(3-methoxy-phenyl)-5-(3-trifluoromethoxy-phenyl)-3,4-dihydro-2H-quinolin-1-yl]-propan-2-ol]
23% |  |  | Oc1cccc(-c2cccc3c2CCC(c2cccc(OC(F)(F)C(F)F)c2)N3CC(O)C(F)(F)F)c1 (stereo not shown) [Compound 43, 3-[2-[3-(1,1,2,2-Tetrafluoro-ethoxy)-phenyl]-1-(3,3,3-trifluoro-2-hydroxy-propyl)-1,2,3,4-tetrahydro-quinolin-5-yl]-phenol]
29% |  |  | CC(C)c1cccc(-c2cccc3c2CCC(c2cccc(OC(F)(F)C(F)F)c2)N3CC(O)C(F)(F)F)c1 (stereo not shown) [Compound 67, 1,1,1-Trifluoro-3-{5-(3-isopropyl-phenyl)-2-[3-(1,1,2,2-tetrafluoro-ethoxy)-phenyl]-3,4-dihydro-2H-quinolin-1-yl}-propan-2-ol]
49% and 61% | 6.46 |  | CC(C)Oc1cccc(-c2cccc3c2CCC(c2cccc(OC(F)(F)C(F)F)c2)N3CC(O)C(F)(F)F)c1 (stereo not shown) [Compound 68, 1,1,1-Trifluoro-3-{5-(3-isopropoxy-phenyl)-2-[3-(1,1,2,2-tetrafluoro-ethoxy)-phenyl]-3,4-dihydro-2H-quinolin-1-yl}-propan-2-ol]
38% |  | 57% | OC(CN1c2cccc(-c3cccnc3)c2CCC1c1cccc(OC(F)(F)C(F)F)c1)C(F)(F)F (stereo not shown) [Compound 76, 1,1,1-Trifluoro-3-{5-pyridin-3-yl-2-[3-(1,1,2,2-tetrafluoro-ethoxy)-phenyl]-3,4-dihydro-2H-quinolin-1-yl}-propan-2-ol]
32% | 6.82 | 37% | C[C@@H](O)CN1c2cccc(-c3cccc(Cl)c3)c2CC[C@@H]1c1cccc(OC(F)(F)F)c1 [Compound 40]
16% |  |  | OC(CN1c2cccc(-c3ccsc3)c2CCC1c1cccc(OC(F)(F)C(F)F)c1)C(F)(F)F (stereo not shown) [Compound 65, 1,1,1-Trifluoro-3-{2-[3-(1,1,2,2-tetrafluoro-ethoxy)-phenyl]-5-thiophen-3-yl-3,4-dihydro-2H-quinolin-1-yl}-propan-2-ol]

Reference: patent publication US7928238B2, “1,2,3,4-tetrahydro-quinoline derivatives as CETP inhibitors” (Janssen Pharmaceutica NV, priority 2006, dated 2011)
